Earlier results on one molecule are cited in patent US20080132534A1, “Pharmaceutical composition comprising a macrolide immunomodulator” (priority 2003, published 2008).

This series deals with allogeneic kidney transplantation. The following applies: rat, oral administration, suppression of systemic immune response.

For `C=CC[C@@H]1/C=C(\C)C[C@H](C)C[C@H](OC)[C@H]2O[C@@](O)(C(=O)C(=O)N3CCCC[C@H]3C(=O)O[C@H](/C(C)=C/[C@@H]3CC[C@@H](O)[C@H](OC)C3)[C@H](C)[C@@H](O)CC1=O)[C@H](C)C[C@@H]2OC` [tacrolimus], the “minimum effective dose (MED)” value was 14 mg/kg.
